One compound from US12048686B2, “Compositions and methods for activating NRF2-dependent gene expression” (The University of Chicago, priority 2018, dated 2024) can be followed below.

In experiment [1] the target is T1, PGK1 (Homo sapiens, UniProt P00558).
T1 sequence (P00558 1-417): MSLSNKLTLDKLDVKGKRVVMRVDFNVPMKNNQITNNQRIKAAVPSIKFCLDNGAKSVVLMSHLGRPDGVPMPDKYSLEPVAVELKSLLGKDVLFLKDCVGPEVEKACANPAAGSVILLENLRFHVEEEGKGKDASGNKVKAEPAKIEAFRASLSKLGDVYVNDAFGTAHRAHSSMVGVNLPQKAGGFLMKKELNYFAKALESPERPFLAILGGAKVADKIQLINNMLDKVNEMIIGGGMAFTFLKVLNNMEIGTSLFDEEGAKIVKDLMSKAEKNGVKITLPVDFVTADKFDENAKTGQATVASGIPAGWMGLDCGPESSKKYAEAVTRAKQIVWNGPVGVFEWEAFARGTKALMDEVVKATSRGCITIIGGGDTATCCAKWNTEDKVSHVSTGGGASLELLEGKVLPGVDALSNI
As to the kind of experiment: Isothermal dose response profiling of PGK1 against GAPDH. The class given is binding. Conditions: 57° C., 0-333 μM. As for the experimental part: (§1) FIG. 5A-E. A photoactivatable affinity probe-based approach identifies PGK1 as the relevant cellular target of CBR-470-1. (a) Silver staining and anti-biotin Western blots of ammonium sulfate fractionated lysates from UV-irradiated IMR32 cells treated with 5 μM for 1 hour with or without CBR-470-1 competition (250 μM) (n=3). Shown on the right are initial proteomic target results from gel-band digestion and LC-MS/MS analysis. (b) Dye-based thermal denaturation assay with recombinant PGK1 in the presence CBR-470-1 (20 μM) or vehicle alone (n=3). Calculated Tm values are listed. (c, d) Dose-dependent thermal stability assay of recombinant PGK1 and GAPDH in the presence of increasing doses of CBR-470-1 near the Tm of both proteins (57° C.) (c) (n=5) or room temperature (d) (n=3). Western blot of sample supernatants after centrifugation (13,000 rpm) detected total PGK1 and GAPDH protein, which were plotted in Prism (below). (e) ARE-LUC reporter activity in HEK293T cells with transient shRNA.
Isothermal dose response profiling of PGK1. In-vitro thermal profiling assay for recombinant proteins was performed by dissolving pure recombinant PGK1 and GAPDH into PBS and dividing equal amount of mixture into 9 aliquots. […] Samples were analyzed by SDS-PAGE and Western blot.

The target in experiment [2] is T1, PGK1. As to the kind of experiment: Dye-based thermal denaturation assay. Conditions: recombinant PGK1, compound 20 μM. The class given is binding. As for the experimental part:
as §1
Dye-based thermal denaturation assay. Thermal denaturation experiments were performed using a Protein Thermal Shift Dye Kit (ThermoFisher, 4461146). […] Fluorescence values were recorded using a Viia7 Real-Time PCR instrument according to supplied instructions.

Experiment [3] deals with Primary murine alveolar macrophages. Nature of the experiment: PM-induced mRNA expression in primary murine alveolar macrophages. In kind it is cell-based. Conditions: pretreated 4 hours, 4 hours later. As to the method: FIG. 19A-C. Primary murine alveolar macrophages were treated with PM or vehicle control (media) in the absence or presence of CBR-470-1 (pretreated 4 hours prior to PM) and measured IL-6, TNFa and NQO1 mRNA 4 hours later.

The next experiment relates to Human lung fibroblasts. Nature of the experiment: TGF-beta-induced collagen and SMA in human lung fibroblasts (Western blot). In kind it is cell-based. Conditions: increasing doses, day 0, 1, 2. As for the experimental part:
FIG. 22. Human lung fibroblasts were treated with TGF-beta and increasing doses of CBR-470 and measured collagen and alpha-smooth muscle actin (a-SMA), a marker for myofibroblast differentiation at day 0, 1, and 2.
Fibrosis is defined by the overgrowth, hardening, and/or scarring of various tissues and is attributed to excess deposition of extracellular matrix components including collagen. Fibrosis is the end result of chronic inflammatory reactions induced by a variety of stimuli including persistent infections, autoimmune reactions, allergic responses, chemical insults, radiation, and tissue injury. Fibroblasts under stimulation by transforming growth factor (TGF)-β, a key cytokine in the pathogenesis of IPF, alter their gene expression profile with de novo expression of cytoskeletal and contractile proteins normally found within smooth muscle cells, and components of the extracellular matrix, including collagen. Fibroblast cells were treated with TGF-β for 24 or 48 hours or left untreated (0). Collagen was detected by Westernblot using an anti-collagen antibody (Cedarlane, CL50111AP-1, 1:3000 dilution). SMA was detected with an anti-SMA antibody from Sigma (T6074, 1:20000 dilution). […] Collagen and SMA production are biomarkers of fibrotic phenotypes in vivo (FIG. 22).
On the technique in general: A western blot detects proteins with antibodies after separation by electrophoresis.

Entries after “also recorded” stand apart in the source; their conditions may differ.

For `CC(C)CN[C@H]1CS(=O)(=O)C[C@@H]1S(=O)(=O)c1ccc(Cl)cc1` [CBR-470-1], the “alteration of PGK1 stability, isothermal dose response against PGK1 and GAPDH” value at PGK1 [1] is on record as “selective, dose-dependent alteration of PGK1 stability”. Further, on PGK1 [2], the “shift in PGK1 thermal stability” value is given as “consistent shift in PGK1 stability”. In addition, in experiment [3], the “IL-6 mRNA” value was “attenuated PM-induced l6 and TNFa mRNA expression”; the “NQO1 mRNA” value is recorded as “induced NQO1 (Nrf2 target gene)”; the “TNFa mRNA” value was “attenuated PM-induced l6 and TNFa mRNA expression”. In the experiment on Human lung fibroblasts, the “alpha-smooth muscle actin (a-SMA), marker for myofibroblast differentiation” value is “dose- and time-dependent inhibition of collagen and smooth-muscle actin (SMA) protein production; also recorded: inhibited myofibroblast differentiation and collagen protein expression in a dose dependent manner”; the collagen protein result is “dose- and time-dependent inhibition of collagen and smooth-muscle actin (SMA) protein production; also recorded: inhibited myofibroblast differentiation and collagen protein expression in a dose dependent manner”.
